Results as given in patent US9340500B2, “Aromatic heterocyclic derivative having TRPV4-inhibiting activity” (SHIONOGI & CO., LTD., priority 2011, dated 2016).

What follows are molecules tested against human TRPV4 (Homo sapiens (Human), UniProt Q9HBA0) (assay: Test Example 1: measurement of TRPV4 inhibitory activity (Fluo 4-AM, FLIPR TETRA, 4α-PDD 1 μmol/L)). Conditions: hTRPV4/CHO cells, 4α-PDD 1 μmol/L.
human TRPV4, sequence (Q9HBA0 whole entry): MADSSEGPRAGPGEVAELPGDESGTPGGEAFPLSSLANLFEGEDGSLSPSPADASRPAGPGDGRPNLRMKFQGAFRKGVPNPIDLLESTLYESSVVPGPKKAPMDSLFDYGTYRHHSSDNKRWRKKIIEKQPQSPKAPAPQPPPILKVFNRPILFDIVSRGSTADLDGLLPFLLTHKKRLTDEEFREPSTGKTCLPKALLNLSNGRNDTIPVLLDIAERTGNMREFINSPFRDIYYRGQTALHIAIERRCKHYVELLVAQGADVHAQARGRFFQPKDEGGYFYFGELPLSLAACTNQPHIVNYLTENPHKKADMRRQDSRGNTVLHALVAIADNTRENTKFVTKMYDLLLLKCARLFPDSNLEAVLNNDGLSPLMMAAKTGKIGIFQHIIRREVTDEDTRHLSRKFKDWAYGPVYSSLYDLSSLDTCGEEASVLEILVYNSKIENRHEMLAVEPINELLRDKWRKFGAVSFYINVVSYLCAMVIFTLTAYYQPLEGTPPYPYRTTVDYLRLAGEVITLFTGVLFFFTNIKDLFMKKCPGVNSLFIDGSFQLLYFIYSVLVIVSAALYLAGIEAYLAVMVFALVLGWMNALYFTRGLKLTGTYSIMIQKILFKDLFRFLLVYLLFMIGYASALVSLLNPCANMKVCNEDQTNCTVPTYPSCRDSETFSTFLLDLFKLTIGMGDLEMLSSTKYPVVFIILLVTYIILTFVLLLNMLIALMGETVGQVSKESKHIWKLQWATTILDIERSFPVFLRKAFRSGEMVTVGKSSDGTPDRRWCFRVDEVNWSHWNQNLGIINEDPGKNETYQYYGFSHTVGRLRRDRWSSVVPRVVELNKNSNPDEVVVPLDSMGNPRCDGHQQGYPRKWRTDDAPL
Assay type: cell-based
Protocol: For each compound, TRPV4 inhibitory activity was measured using cells.
(1) The TRPV4 inhibitory activity was measured using CHO-K1 cells stably expressing human TRPV4 (hTRPV4/CHO cells).
(2) In the day before the experimental day, frozen cell were thawed and washed with the culture medium (MEM-α, 10% FBS, 2 mmol/L GlutaMax, 50 unit Penicillin, 50 μg/mL Streptomycin). Then cells were suspended in the culture medium.
(3) The 384-well plates which hTRPV4/CHO cells were seeded at densities of 4000 cells/well in the culture medium and cultured in a CO2 incubator in the presence of 5% CO2 at 37° C. for overnight was used as assay plates.
(4) The assay plate was washed with assay buffer (Hanks, 20 mmol/L HEPES, 2.5 mmol/L probenecid, pH7.4), and the buffer were remained at 20 μL/well.
(5) 10 μl of dye loading buffer (9 μmol/L Fluo 4-AM, 0.09% Pluronic F-127/assay buffer) was added to each well, then the assay plate was incubated in a CO2 incubator in the presence of 5% CO2 at 37° C. for one hour. (final 3 μmol/L Fluo4-AM).
(6) The assay plate was washed with the assay buffer, and the buffers were remained at 20 μL/well. Then the assay plate was incubated for 10 min at room temperature.
(7) Diluted compound solution was dispensed to each well in the compound plate, and mixed with built-in Pipette and Mixer of the Fluorescence analysis system FLIPR TETRA (Molecular devices).
(8) After incubation for 5 min, 20 μL of 4α-PDD solution were applied to each well of assay plate and mixed with the FLIPR TETRA. (final 1 μmol/L 4α-PDD)
(9) The fluorescent intensity was measured with FLIPR TETRA system for 10 min from the point of time addition the compound solution, at Ex 470-495 nm, Em 515-575 nm wavelength.
TRPV4 inhibitory activity (IC50 value and Ki value) of a compound was evaluated according to the following procedure.
(10) In the presence of the compound, the difference between maximal and minimal of fluorescent intensity value for 5 min from just before addition of 4α-PDD solution was calculated, and it was referred as Max-Min value. Max-Min value of the Ruthenium Red at 20 μM was defined as 100% inhibitory activity, Max-Min value in the absence of the compound was defined as 0% inhibitory activity. The TRPV4 inhibitory activity of the compound was calculated by the following formula. (1−(Max-Min value of the compound−100% inhibitory activity)/(0% inhibitory activity−100% inhibitory activity))×100 (11) Inhibitory activity was calculated at 10 points with three fold serial dilution, in the final concentration of the compound from 10 μmmol/L to 0.5 nmol/L, the IC50 value was calculated by logistic approximation method. (12) In the absence of the compound, the fluorescent intensity was measured as the same method with 10, 1, 0.5, 0.2, and 0 μmol/L as final concentration of 4α-PDD. The difference of minimal and maximal fluorescent intensity value for 5 min from just before addition of 4α-PDD solution was calculated, and it was referred as Max-Min value. Max-Min value of the 4α-PDD at 10 μmol/L was defined as 100% activity, Max-Min value in the absence of 4α-PDD was defined as 0% activity. The TRPV4 activity of each concentration of 4α-PDD was calculated by the following formula. (Max-Min value of the each 4α-PDD concentration−0% activity)/(100% activity−0% activity))×100 (13) Effective activity was calculated in 5 concentrations of 4α-PDD the above. The EC50 value was calculated by logistic approximation method. The Ki value of a compound was calculated by the following formula. Ki (nmol/L)=IC50 value (nmol/L)/(1+[…] (test 4α-PDD concentration (nmol/L)/EC50 value (nmol/L))
With `Cc1c(C(=O)Nc2cccc(C(F)(F)F)c2)cc(C(C)(C)C)n1C1CCN(C2CCNCC2)CC1` [Compound I-109] the IC50 was 6.3 µM. `Cc1c(C(=O)Nc2cccc(C(F)(F)F)c2)cc(C(C)(C)C)n1C1CCN(CCO)CC1` [Compound I-110] gave an IC50 of 6.6 µM. `Cc1c(C(=O)Nc2cccc(C(F)(F)F)c2)cc(C(C)(C)C)n1[C@H]1CC[C@H](N)CC1` [Compound I-111] gave an IC50 of 4.1 µM. `CN[C@H]1CC[C@H](n2c(C(C)(C)C)cc(C(=O)Nc3cccc(C(F)(F)F)c3)c2C)CC1` [Compound I-112] showed an IC50 of 5.6 µM. `Cc1c(C(=O)Nc2cccc(C(F)(F)F)c2)cc(C(C)(C)C)n1[C@H]1CC[C@H](N(C)C)CC1` [Compound I-113] showed an IC50 of 5.8 µM. Molecule `Cc1c(C(=O)Nc2cccc(C(F)(F)F)c2)cc(C(C)(C)C)n1[C@H]1CC[C@H](NS(C)(=O)=O)CC1` [Compound I-114] has an IC50 of 8.7 µM. For `Cc1c(C(=O)Nc2cccc(C(F)(F)F)c2)cc(C(C)(C)C)n1[C@H]1CC[C@@H](NS(C)(=O)=O)CC1` [Compound I-115], the IC50 was 6 µM. Work on `Cc1c(C(=O)Nc2cccc(C(F)(F)F)c2)cc(C(C)(C)C)n1[C@H]1CC[C@@H](N)CC1` [Compound I-116] yielded an IC50 of 5.3 µM. With `CNCCCn1c(C(C)(C)C)cc(S(=O)(=O)Nc2cccc(C(F)(F)F)c2)c1C` [Compound I-117] the IC50 was 9.2 µM. `Cc1c(S(=O)(=O)Nc2cccc(C(F)(F)F)c2)cc(C(C)(C)C)n1CCCN1CCOCC1` [Compound I-118] showed an IC50 of 9.2 µM. In the case of `Cc1c(C(=O)Nc2cccc(C(F)(F)F)c2)cc(C(C)(C)C)n1[C@H]1CC[C@@H](N(C)S(C)(=O)=O)CC1` [Compound I-120], the IC50 is reported as 3.5 µM. Work on `CNCC(F)(F)Cn1c(C(C)(C)C)cc(C(=O)Nc2cccc(C(F)(F)F)c2)c1C` [Compound I-121] yielded an IC50 of 1.4 µM. `Cc1c(C(=O)Nc2cccc(C(F)(F)F)c2)cc(C(C)(C)C)n1CC(F)(F)CN1CCOCC1` [Compound I-122] was tested, and the IC50 was 0.78 µM. Work on `Cc1c(C(=O)Nc2cccc(C(F)(F)F)c2)cc(C(C)(C)C)n1CC(C)(C)CN1CCNCC1` [Compound I-123] yielded an IC50 of 1.4 µM. In the case of `Cc1c(C(=O)Nc2cccc(C(F)(F)F)c2)cc(C(C)(C)C)n1CCC(C)N1CCNCC1` (stereo not shown) [Compound I-124], the IC50 is reported as 0.26 µM. For `Cc1c(C(=O)Nc2cccc(C(F)(F)F)c2)cc(C(C)(C)C)n1CC(F)(F)CN1CCNCC1` [Compound I-125], the IC50 was 1.5 µM. `Cc1c(-c2nc3ccccc3o2)cc(C(C)(C)C)n1CCCN1CCNCC1` [Compound I-126] showed an IC50 of 4.5 µM. `Cc1c(-c2nc3ccccc3[nH]2)cc(C(C)(C)C)n1CCCN1CCOCC1` [Compound I-127] gave an IC50 of 3.1 µM. For `Cc1c(-c2nc3ccccc3[nH]2)cc(C(C)(C)C)n1CCCN1CCNCC1` [Compound I-128], the IC50 was 5.4 µM. `CNCCCn1c(C(C)(C)C)cc(-c2nc3ccccc3[nH]2)c1C` [Compound I-129] gave an IC50 of 6.4 µM.

Same assay, conditions: hTRPV4/CHO cells, calculated from IC50 and 4α-PDD EC50
`Cc1c(C(=O)Nc2cccc(C(F)(F)F)c2)cc(C(C)(C)C)n1C1CCN(C2CCNCC2)CC1` [Compound I-109] gave a Ki of 2.3 µM. `Cc1c(C(=O)Nc2cccc(C(F)(F)F)c2)cc(C(C)(C)C)n1C1CCN(CCO)CC1` [Compound I-110] showed a Ki of 2.4 µM. With `Cc1c(C(=O)Nc2cccc(C(F)(F)F)c2)cc(C(C)(C)C)n1[C@H]1CC[C@H](N)CC1` [Compound I-111] the Ki was 1.5 µM. Molecule `CN[C@H]1CC[C@H](n2c(C(C)(C)C)cc(C(=O)Nc3cccc(C(F)(F)F)c3)c2C)CC1` [Compound I-112] has a Ki of 1.5 µM. Molecule `Cc1c(C(=O)Nc2cccc(C(F)(F)F)c2)cc(C(C)(C)C)n1[C@H]1CC[C@H](N(C)C)CC1` [Compound I-113] has a Ki of 1.5 µM. In the case of `Cc1c(C(=O)Nc2cccc(C(F)(F)F)c2)cc(C(C)(C)C)n1[C@H]1CC[C@H](NS(C)(=O)=O)CC1` [Compound I-114], the Ki is reported as 2.3 µM. `Cc1c(C(=O)Nc2cccc(C(F)(F)F)c2)cc(C(C)(C)C)n1[C@H]1CC[C@@H](NS(C)(=O)=O)CC1` [Compound I-115] showed a Ki of 1.6 µM. Molecule `Cc1c(C(=O)Nc2cccc(C(F)(F)F)c2)cc(C(C)(C)C)n1[C@H]1CC[C@@H](N)CC1` [Compound I-116] has a Ki of 1.5 µM. `CNCCCn1c(C(C)(C)C)cc(S(=O)(=O)Nc2cccc(C(F)(F)F)c2)c1C` [Compound I-117] was tested, and the Ki was 2.5 µM. In the case of `Cc1c(S(=O)(=O)Nc2cccc(C(F)(F)F)c2)cc(C(C)(C)C)n1CCCN1CCOCC1` [Compound I-118], the Ki is reported as 2.5 µM. `Cc1c(C(=O)Nc2cccc(C(F)(F)F)c2)cc(C(C)(C)C)n1[C@H]1CC[C@@H](N(C)S(C)(=O)=O)CC1` [Compound I-120] was tested, and the Ki was 1.1 µM. For `CNCC(F)(F)Cn1c(C(C)(C)C)cc(C(=O)Nc2cccc(C(F)(F)F)c2)c1C` [Compound I-121], the Ki was 0.45 µM. In the case of `Cc1c(C(=O)Nc2cccc(C(F)(F)F)c2)cc(C(C)(C)C)n1CC(F)(F)CN1CCOCC1` [Compound I-122], the Ki is reported as 0.24 µM. For `Cc1c(C(=O)Nc2cccc(C(F)(F)F)c2)cc(C(C)(C)C)n1CC(C)(C)CN1CCNCC1` [Compound I-123], the Ki was 0.45 µM.
